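Protocol summary: plate cells (96-well), add compound at 5 concentrations, incubate 48 h, interpolate endpoints linearly. GI50 = concentration required for 50% inhibition of growth.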 The source made the active and inactive calls. Rule as the data show it: active = GI50 up to about 1.1 µM and inactive = higher.
How the values were obtained:
Test in all cases: NCI-60 cell line screen, 48 h
DLD-1 = test system: DLD-1
DMS-114 = test system: DMS-114
DMS-273 = test system: DMS-273
HOP-18 = test system: HOP-18
KM-20L2 = test system: KM-20L2
LXFL 529 = test system: LXFL 529
M19-MEL = test system: M19-MEL
XF498 = test system: XF498
RXF 631 = test system: RXF 631

SMILES	GI50 (DLD-1)	GI50 (DMS-114)	GI50 (DMS-273)	GI50 (HOP-18)	GI50 (KM-20L2)	GI50 (LXFL 529)	GI50 (M19-MEL)	GI50 (XF498)	GI50 (RXF 631)
C/C(=C\CC/C=C(\C)CC/C=C(\C)CCC1SC1(C)C)CC/C=C(\C)CCC1OC1(C)C (centres undefined)	> 100 µM (inactive)	65.6 µM (inactive)	> 100 µM (inactive)	> 100 µM (inactive)	> 100 µM (inactive)	> 100 µM (inactive)	71.4 µM (inactive)	> 100 µM (inactive)	–
Cc1cn(C2CC(OC3CCCCO3)C(CO)O2)c(=O)[nH]c1=O (centres undefined)	> 100 µM (inactive)	–	> 100 µM (inactive)	> 100 µM (inactive)	> 100 µM (inactive)	> 100 µM (inactive)	> 100 µM (inactive)	> 100 µM (inactive)	–
C1CCNCC1.S=C(S)N1CCCCC1	–	0.24 µM (active)	–	100 µM (inactive)	100 µM (inactive)	–	0.685 µM (active)	–	4.43 µM (inactive)
COc1ccc2c(c1[N+](=O)[O-])CC[C@@H]1[C@@H]2CC[C@]2(C)C(=O)CC[C@@H]12	> 25 µM (inactive)	18.4 µM (inactive)	> 25 µM (inactive)	> 25 µM (inactive)	> 25 µM (inactive)	–	> 25 µM (inactive)	20.4 µM (inactive)	–
CN(C)CC1CCC/C1=N\O (centres undefined)	> 100 µM (inactive)	–	> 100 µM (inactive)	> 100 µM (inactive)	> 100 µM (inactive)	> 100 µM (inactive)	> 100 µM (inactive)	–	–
CNC(=S)NC1CCCCC1NC(=S)NC (centres undefined)	> 100 µM (inactive)	> 100 µM (inactive)	> 100 µM (inactive)	> 100 µM (inactive)	> 100 µM (inactive)	> 100 µM (inactive)	> 100 µM (inactive)	> 100 µM (inactive)	> 100 µM (inactive)
COC(=O)C1=C(c2cc(OC)c(OC)c(OC)c2)OC(c2ccc3c(c2)OCO3)C1 (centres undefined)	23 µM (inactive)	13.9 µM (inactive)	25.4 µM (inactive)	> 100 µM (inactive)	19.7 µM (inactive)	25.3 µM (inactive)	21.1 µM (inactive)	–	–
O=C(O)/C(Cl)=C(\Cl)C(=O)NC1C2CC3CC(C2)CC1C3 (centres undefined)	> 100 µM (inactive)	> 100 µM (inactive)	> 100 µM (inactive)	> 100 µM (inactive)	> 100 µM (inactive)	> 100 µM (inactive)	> 100 µM (inactive)	> 100 µM (inactive)	61 µM (inactive)
Cc1nccc2c1cnc1ccnn12	> 100 µM (inactive)	> 100 µM (inactive)	> 100 µM (inactive)	–	> 100 µM (inactive)	> 100 µM (inactive)	> 100 µM (inactive)	–	> 100 µM (inactive)
CCCC(=O)OCC(O)CO (centres undefined)	> 5000 µM (inactive)	> 5000 µM (inactive)	4040 µM (inactive)	1730 µM (inactive)	–	> 5000 µM (inactive)	> 5000 µM (inactive)	–	–
N#CC(C(=O)/C(=N\NC(N)=O)C(C#N)c1ccc(Cl)cc1)c1ccc(Cl)cc1 (centres undefined)	> 100 µM (inactive)	> 100 µM (inactive)	–	> 100 µM (inactive)	> 100 µM (inactive)	> 100 µM (inactive)	> 100 µM (inactive)	> 100 µM (inactive)	> 100 µM (inactive)
CCc1cccc(C)c1N1C(=O)C(=O)C(c2nc3ccccc3o2)/C(=N/NC(=S)NN)C1=O (centres undefined)	> 100 µM (inactive)	> 100 µM (inactive)	> 100 µM (inactive)	–	> 100 µM (inactive)	> 100 µM (inactive)	> 100 µM (inactive)	> 100 µM (inactive)	> 100 µM (inactive)
CC12CC3C(CC1SCC(=O)O2)C3(C)C (centres undefined)	> 100 µM (inactive)	> 100 µM (inactive)	> 100 µM (inactive)	> 100 µM (inactive)	–	> 100 µM (inactive)	> 100 µM (inactive)	> 100 µM (inactive)	–
CC(=O)OC12c3ccccc3C1CCCCCC21OCCCO1 (centres undefined)	> 100 µM (inactive)	> 100 µM (inactive)	> 100 µM (inactive)	–	> 100 µM (inactive)	> 100 µM (inactive)	> 100 µM (inactive)	–	–
COc1c(Br)cc(Br)c(OC)c1-c1ccc[nH]1	62.5 µM (inactive)	74.6 µM (inactive)	87.9 µM (inactive)	–	–	> 100 µM (inactive)	91 µM (inactive)	–	–
CC(=O)Nc1ccc(-c2nnc(SCC(=O)Nc3ccc([N+](=O)[O-])cc3)o2)cc1	11.9 µM (inactive)	3.3 µM (inactive)	10.6 µM (inactive)	16.4 µM (inactive)	14.4 µM (inactive)	7.93 µM (inactive)	13.5 µM (inactive)	–	–
CCc1ccc(/C(C)=N/NC(N)=S)cc1	–	48.9 µM (inactive)	–	> 100 µM (inactive)	> 100 µM (inactive)	–	> 100 µM (inactive)	0.569 µM (active)	–
O=C(N/C(=C\c1cccc([N+](=O)[O-])c1)c1nc2ccccc2[nH]1)c1ccccc1	55.5 µM (inactive)	26.7 µM (inactive)	69.2 µM (inactive)	–	43.8 µM (inactive)	26.1 µM (inactive)	62.8 µM (inactive)	27.7 µM (inactive)	–
O=[N+]([O-])C1(CO)COC(CCc2ccccc2)OC1 (centres undefined)	> 100 µM (inactive)	–	–	> 100 µM (inactive)	> 100 µM (inactive)	> 100 µM (inactive)	> 100 µM (inactive)	> 100 µM (inactive)	–
CCOc1ccc(C2=NN(CC)C(=O)C(C3C(=O)N(c4ccccc4)N=C3C)C2)cc1 (centres undefined)	> 100 µM (inactive)	> 100 µM (inactive)	> 100 µM (inactive)	> 100 µM (inactive)	> 100 µM (inactive)	> 100 µM (inactive)	> 100 µM (inactive)	> 100 µM (inactive)	–
Nc1ncnc2c1ncn2CCOC(c1ccccc1)P(=O)(O)O (centres undefined)	> 100 µM (inactive)	–	> 100 µM (inactive)	–	> 100 µM (inactive)	> 100 µM (inactive)	> 100 µM (inactive)	–	–
CC(CC(=O)N1C(=O)C(C)(C)[C@@H](O)[C@H]1CC(C)C(Cl)(Cl)Cl)C(Cl)(Cl)Cl (some centres undefined)	> 100 µM (inactive)	> 100 µM (inactive)	> 100 µM (inactive)	> 100 µM (inactive)	> 100 µM (inactive)	> 100 µM (inactive)	> 100 µM (inactive)	> 100 µM (inactive)	–
Cc1ccc(C2=C(c3ccc(C)cc3)C(c3ccc(C)cc3)=C(c3ccc(C)cc3)C2=O)cc1	> 100 µM (inactive)	–	–	> 100 µM (inactive)	> 100 µM (inactive)	> 100 µM (inactive)	> 100 µM (inactive)	> 100 µM (inactive)	> 100 µM (inactive)
CCOC(=O)CN1C(=O)c2cc([N+](=O)[O-])cc3cc([N+](=O)[O-])cc(c23)C1=O	5.86 µM (inactive)	57.7 µM (inactive)	> 100 µM (inactive)	> 100 µM (inactive)	50.8 µM (inactive)	12.3 µM (inactive)	30.1 µM (inactive)	> 100 µM (inactive)	50.7 µM (inactive)
C[Si](C)(C)/C=C\CCO	> 100 µM (inactive)	> 100 µM (inactive)	> 100 µM (inactive)	> 100 µM (inactive)	> 100 µM (inactive)	> 100 µM (inactive)	> 100 µM (inactive)	> 100 µM (inactive)	> 100 µM (inactive)
CC(C)(C)NC(=O)NC12CC3CC(CC(F)(C3)C1)C2	> 100 µM (inactive)	> 100 µM (inactive)	> 100 µM (inactive)	–	> 100 µM (inactive)	> 100 µM (inactive)	> 100 µM (inactive)	> 100 µM (inactive)	> 100 µM (inactive)

— ChEMBL document CHEMBL1201862, “PubChem BioAssay data set” (2004)
